Patent US8785452B2, “Anti-infective compounds” (priority 2008, dated 2014)
Like-named read-outs stand apart in the source and are kept apart here.

System: M. tuberculosis H37Rv-GFP
Assay: microbe, parasite or virus in culture
Assay type: cell-based, Mycobacterium tuberculosis
Conditions: Mycobacterium tuberculosis, H37RV, Macrophage
[1] = confirmation, 20 uM, intracellular, read-out: QIM Confirm % Inhibition 20 uM
[2] = primary screen, 20 μM, intracellular, read-out: Primary QIM % Inhibition
[3] = read-out: Primary QIM % Inhibition
[4] = read-out: QIM Confirm % Inhibition 20 uM

Row | SMILES | inhibition at 20 µM [1] | inhibition at 20 µM [2] | inhibition at 20 µM [3] | inhibition at 20 µM [4]
1 | C/C(=N\NC(=S)Nc1cccc(C)c1)c1ccccc1O [IPK 000 173 06] | 15.8% | 44% | – | –
2 | O=C(Nc1nccs1)c1ccc(COc2ccc(F)cc2)o1 [IPK 000 141 08] | 84% | 67.5% | – | –
3 | O=C(NCCC1=CCCCC1)c1ccc(Br)o1 [IPK 000 184 56] | 72.7% | 85.1% | – | –
4 | O=C(Nc1ccc(NC(=O)c2cccnc2)cc1)C1=CCCS1 [IPK 000 199 70] | 69.6% | 70.5% | – | –
5 | COc1ccc(/C=N/NC(=O)c2ccncc2)cc1 [IPK 000 219 28] | 46.2% | 106% | – | –
6 | O=C(CCC(=O)Nc1ccccc1)N/N=C/c1ccc([N+](=O)[O-])o1 [IPK 000 262 39] | 29.5% | 2.1% | – | –
7 | C/C(=N\NC(=O)COc1cccc(Br)c1)c1ccccn1 [IPK 000 157 55] | 19.9% | 22% | – | –
8 | Cc1cc(OCC(=O)NN)ccc1Br [IPK 000 192 59] | 81.1% | 65.3% | – | –
9 | CCOC(=O)c1sc(NC(=O)CCCc2ccccc2)nc1C [IPK 000 254 25] | 18.5% | 32.5% | – | –
10 | O=C(Nc1ccc(Cl)c(Cl)c1)c1ccc(Cn2cc(Cl)cn2)cc1 [IPK 000 180 16] | 69.8% | 46.1% | – | –
11 | O=[N+]([O-])c1ccc(O)c(-c2cc(C(F)(F)C(F)F)[nH]n2)c1 [IPK 000 164 52] | 80% | 64.7% | – | –
12 | NNC(=O)c1ccc(COc2ccc(Cl)cc2)o1 [IPK 000 140 87] | 91.1% | 92.2% | – | –
13 | CCCCOC(=O)c1cc([N+](=O)[O-])c(Sc2nc3ccccc3[nH]2)c([N+](=O)[O-])c1 [IPK 000 141 58] | – | – | 58.2% | 59.2%
14 | Cc1ccc(NC(=O)c2ccc(F)cc2)cc1Cl [IPK 000 205 22] | 69.7% | 85.1% | – | –
15 | CC12CC3CC(C)(C1)CC(NC(=O)c1ccc(N4CCCC4)c([N+](=O)[O-])c1)(C3)C2 [IPK 000 230 02] | – | – | -7.7% | 40.5%
16 | CC1=NN(C(N)=S)C(=O)/C1=N/Nc1ccc(C)cc1 [IPK 000 168 31] | 78.1% | 83.9% | – | –
17 | CC(C)c1ccc(OCC(=O)N/N=C\c2ccccc2OCC(=O)O)cc1 [IPK 000 138 43] | 78.9% | 76.3% | – | –

Row | SMILES | inhibition at 20 µM [1] | inhibition at 20 µM [2] | inhibition at 20 µM [3] | inhibition at 20 µM [4]
18 | Cc1cc(C)nc(NC(=N)Nc2ccc(OCc3ccc(Cl)cc3)cc2)n1 [IPK 000 163 93] | 89.9% | 66.7% | – | –
19 | Cc1cccc(C(=O)NCCC(C)C)c1 [IPK 000 210 74] | 20.2% | 76.4% | – | –
20 | O=[N+]([O-])c1ccc(Cl)c(/C=N/c2ccccc2O)c1 [IPK 000 169 68] | -5.3% | -5% | – | –
21 | O=C(Nc1ccc(C(F)(F)F)cc1)Nc1cccc(F)c1 [IPK 000 146 91] | 70% | 57% | – | –
22 | Cc1noc(NS(=O)(=O)c2ccc(N)cc2)c1C [IPK 000 254 12] | 13.2% | 30.3% | – | –
23 | C/C(=N\NC(=S)Nc1cccc(C)c1)c1ccco1 [IPK 000 173 45] | 19.2% | 14.9% | – | –
24 | C/C(=N/NC(=O)c1cc2ccccc2cc1O)c1ccc(O)cc1 [IPK 000 180 11] | 69.7% | 68.2% | – | –
25 | C/C(=N\NC(=O)c1ccccc1)c1ccc2ccccc2c1 [IPK 000 139 17] | 65.8% | 72.9% | – | –
26 | O=[N+]([O-])c1ccc(NNc2ccccc2)c([N+](=O)[O-])c1 [IPK 000 171 46] | – | – | 24.3% | 72.1%
27 | O=C(NCCc1ccccc1)c1ccc([N+](=O)[O-])o1 [IPK 000 235 09] | 36.4% | 46.2% | – | –
28 | O=C(N/N=C/c1ccccc1)c1ccncc1 [IPK 000 219 27] | 57.4% | 96.9% | – | –
29 | O=C(CCCCC1=CCCS1)Nc1ccc(C(F)(F)F)cc1 [IPK 000 148 64] | 71.4% | 72.5% | – | –
30 | CC(C)(C)c1ccc(-c2nc(Oc3ccc(O)cc3)c3ccccc3n2)cc1 [IPK 000 142 18] | 79.4% | 73.2% | – | –
31 | CC(C)(C)c1ccc(C(=O)NC2CCCCCCC2)cc1 [IPK 000 248 71] | 79% | 79.5% | – | –
32 | Cc1ccoc1/C=N/NC(=O)c1ccncc1 [IPK 000 193 76] | 97.4% | 81.4% | – | –
33 | O=C(NC1CCCCCC1)c1cc([N+](=O)[O-])cc([N+](=O)[O-])c1 [IPK 000 046 83] | – | – | 75.8% | 61.7%
34 | CCN(CC)c1ccc(/C=N/NC(=O)c2ccncc2)cc1 [IPK 000 195 99] | 69.5% | 79.1% | – | –
